Numbers after ± are expanded uncertainties.
What was measured:
[1] = 101 kPa, Liquid; for mass density: Vibrating tube method
[2] = xn = mol fraction of the nth substance listed; details: 101 kPa, Liquid, x2 = 0; for mass density: Vibrating tube method

Row | Compound | kinematic viscosity ([1]; 293.15 K) | mass density ([1]; 293.15 K) | kinematic viscosity ([1]; 298.15 K) | mass density ([1]; 298.15 K) | kinematic viscosity ([1]; 303.15 K) | mass density ([1]; 303.15 K) | kinematic viscosity ([1]; 308.15 K) | mass density ([1]; 308.15 K) | kinematic viscosity ([1]; 313.15 K) | mass density ([1]; 313.15 K) | kinematic viscosity ([1]; 318.15 K) | mass density ([1]; 318.15 K) | kinematic viscosity ([1]; 323.15 K) | mass density ([1]; 323.15 K) | mass density ([2]; 293.15 K) | kinematic viscosity ([2]; 293.15 K) | mass density ([2]; 298.15 K) | kinematic viscosity ([2]; 298.15 K) | mass density ([2]; 303.15 K) | kinematic viscosity ([2]; 303.15 K) | further results
1 | CCC(C)(C)O [2-methylbutan-2-ol] | 5.11e-06 ± 2.2e-07 m2/s | 813.9 ± 1 kg/m3 | 4.47e-06 ± 2e-07 m2/s | 810.5 ± 1 kg/m3 | 3.91e-06 ± 1.7e-07 m2/s | 807 ± 1 kg/m3 | 3.39e-06 ± 1.5e-07 m2/s | 803.5 ± 1 kg/m3 | 2.91e-06 ± 1.3e-07 m2/s | 800 ± 1 kg/m3 | 2.52e-06 ± 1.1e-07 m2/s | 796.6 ± 1 kg/m3 | 2.09e-06 ± 9.6e-08 m2/s | 793.3 ± 1 kg/m3 | – | – | – | – | – | – | –
2 | CCO [ethanol] + CC(C)CCO | – | – | – | – | – | – | – | – | – | – | – | – | – | – | 789.7 ± 1 kg/m3 | 1.52e-06 ± 7.2e-08 m2/s | 785.3 ± 1 kg/m3 | 1.39e-06 ± 6.6e-08 m2/s | 780.9 ± 1 kg/m3 | 1.23e-06 ± 5.9e-08 m2/s | mass density ([2]; 308.15 K): 776.5 ± 1 kg/m3; kinematic viscosity ([2]; 308.15 K): 1.13e-06 ± 5.5e-08 m2/s; mass density ([2]; 313.15 K): 772.2 ± 1 kg/m3; kinematic viscosity ([2]; 313.15 K): 1.02e-06 ± 5.1e-08 m2/s; mass density ([2]; 318.15 K): 767.9 ± 1 kg/m3; kinematic viscosity ([2]; 318.15 K): 9.4e-07 ± 4.7e-08 m2/s; mass density ([2]; 323.15 K): 763.5 ± 1 kg/m3; kinematic viscosity ([2]; 323.15 K): 8.28e-07 ± 4.2e-08 m2/s
3 | CC(C)CCO [3-methylbutan-1-ol] | 5e-06 ± 2.2e-07 m2/s | 808.3 ± 1 kg/m3 | 4.35e-06 ± 1.9e-07 m2/s | 804.6 ± 1 kg/m3 | 3.81e-06 ± 1.7e-07 m2/s | 800.8 ± 1 kg/m3 | 3.33e-06 ± 1.5e-07 m2/s | 797.1 ± 1 kg/m3 | 2.94e-06 ± 1.3e-07 m2/s | 793.2 ± 1 kg/m3 | 2.59e-06 ± 1.2e-07 m2/s | 789.5 ± 1 kg/m3 | 2.29e-06 ± 1e-07 m2/s | 785.7 ± 1 kg/m3 | – | – | – | – | – | – | –
4 | CCC(C)CO (stereo not drawn) [2-methyl-1-butanol] | 6.11e-06 ± 2.5e-07 m2/s | 817.6 ± 1 kg/m3 | 5.34e-06 ± 2.3e-07 m2/s | 814.1 ± 1 kg/m3 | 4.69e-06 ± 2e-07 m2/s | 810.5 ± 1 kg/m3 | 4.08e-06 ± 1.8e-07 m2/s | 807.1 ± 1 kg/m3 | 3.54e-06 ± 1.6e-07 m2/s | 803.6 ± 1 kg/m3 | 3.09e-06 ± 1.4e-07 m2/s | 800.1 ± 1 kg/m3 | 2.72e-06 ± 1.2e-07 m2/s | 796.6 ± 1 kg/m3 | – | – | – | – | – | – | –
5 | CCO [ethanol] + CCC(C)(C)O | – | – | – | – | – | – | – | – | – | – | – | – | – | – | 789.7 ± 1 kg/m3 | 1.52e-06 ± 7.2e-08 m2/s | 785.3 ± 1 kg/m3 | 1.39e-06 ± 6.6e-08 m2/s | 780.9 ± 1 kg/m3 | 1.23e-06 ± 5.9e-08 m2/s | mass density ([2]; 308.15 K): 776.5 ± 1 kg/m3; kinematic viscosity ([2]; 308.15 K): 1.13e-06 ± 5.5e-08 m2/s; mass density ([2]; 313.15 K): 772.2 ± 1 kg/m3; kinematic viscosity ([2]; 313.15 K): 1.02e-06 ± 5.1e-08 m2/s; mass density ([2]; 318.15 K): 767.9 ± 1 kg/m3; kinematic viscosity ([2]; 318.15 K): 9.4e-07 ± 4.7e-08 m2/s; mass density ([2]; 323.15 K): 763.5 ± 1 kg/m3; kinematic viscosity ([2]; 323.15 K): 8.28e-07 ± 4.2e-08 m2/s
6 | CCO [ethanol] + CCC(C)CO | – | – | – | – | – | – | – | – | – | – | – | – | – | – | 789.7 ± 1 kg/m3 | 1.52e-06 ± 7.2e-08 m2/s | 785.3 ± 1 kg/m3 | 1.39e-06 ± 6.6e-08 m2/s | 780.9 ± 1 kg/m3 | 1.23e-06 ± 5.9e-08 m2/s | mass density ([2]; 308.15 K): 776.5 ± 1 kg/m3; kinematic viscosity ([2]; 308.15 K): 1.13e-06 ± 5.5e-08 m2/s; mass density ([2]; 313.15 K): 772.2 ± 1 kg/m3; kinematic viscosity ([2]; 313.15 K): 1.02e-06 ± 5.1e-08 m2/s; mass density ([2]; 318.15 K): 767.9 ± 1 kg/m3; kinematic viscosity ([2]; 318.15 K): 9.4e-07 ± 4.7e-08 m2/s; mass density ([2]; 323.15 K): 763.5 ± 1 kg/m3; kinematic viscosity ([2]; 323.15 K): 8.28e-07 ± 4.2e-08 m2/s
7 | CCO [ethanol] | 1.52e-06 ± 7.2e-08 m2/s | 789.7 ± 1 kg/m3 | 1.39e-06 ± 6.6e-08 m2/s | 785.3 ± 1 kg/m3 | 1.23e-06 ± 5.9e-08 m2/s | 780.9 ± 1 kg/m3 | 1.13e-06 ± 5.5e-08 m2/s | 776.5 ± 1 kg/m3 | 1.02e-06 ± 5.1e-08 m2/s | 772.2 ± 1 kg/m3 | 9.4e-07 ± 4.7e-08 m2/s | 767.9 ± 1 kg/m3 | 8.28e-07 ± 4.2e-08 m2/s | 763.5 ± 1 kg/m3 | – | – | – | – | – | – | –
